Results reported in patent US20110081296A1, “SYSTEMS AND METHODS FOR IDENTIFICATION OF CILIOPATHY THERAPEUTICS” (RUTGERS, THE STATE UNIVERSITY OF NEW JERSEY, priority 2009, published 2011).

How the values were obtained:
Assay type in all cases: cell-based, Caenorhabditis elegans
WT sperm = test: in vitro sperm crawling on glass slides after chemical activation, wild type; conditions: n=7
Method: (§1) Epifluorescence and Nomarski analyses were performed on a Zeiss Axioplan2 imaging system equipped with 10×, 63× (NA 1.4), 100× (NA 1.4) objectives and a Photometrics Cascade 512B CCD camera using Metamorph software. 3D deconvolution of Z-stacks of epifluorescent image were performed by AutoQuantX program (MediaCybernetics). Confocal images were collected using a 510 LSM META ZEISS. Optical sections were collected between 0.4-1.0 μm and projected as Z-series that were stored as TIFF files and manipulated using Adobe PhotoShopTM. Worms were anesthetized with 1 mM levamisole, mounted on agar pads and maintained at room temperature. For time-lapse microscopy of sperm motility, Nomarski images were taken every 15 seconds for up to 15 minutes. Neuronal images shown in figures are projected epifluorescent Z-stacks af[…] deconvolution except for FIGS. 2C and 2G, which are projected Z-stacks of confocal sections. For electron microscopy, sperm were prepared as known in the art, except that the samples were embedded in LX112 (Ladd Research Industries Inc., Burlington, Va.). To isolate spermatids, virgin L4 males were isolated for 2-3 days in 20 degrees and cut with a 25g needle on a glass slide in Sperm Media (SM) pH 7.9 with 10 mM Dextrose. For in vitro activation, 20 ug/ml of Pronase or 100 nM monensin (for in vitro sperm crawling experiments) was added to SM as described in [21]. […]

my15 sperm = test: in vitro sperm crawling on glass slides after chemical activation, cil-1(my15) mutant; conditions: isolated my15 sperm
Method: as §1

WT spermatids = test: in vitro sperm activation of isolated male spermatids, wild type; conditions: of 1, 10, 100 nM tested
Method: (§2) To isolate spermatids, virgin L4 males were isolated for 2-3 days in 20 degrees and cut with a 25g needle on a glass slide in Sperm Media (SM) pH 7.9 with 10 mM Dextrose. For in vitro activation, 20 ug/ml of Pronase or 100 nM monensin (for in vitro sperm crawling experiments) was added to SM as described in [21]. For wortmannin treatment, a 100× wortmannin stock solution in DMSO was added to reach the final concentration of 100 nM into SM. During sperm activation, a round spermatid develops into a motile spermatozoon with a pseudopod (FIG. 16A). This process can be mimicked in vitro by chemical activators such as the ionophore monensin or Pronase. Within 15 min of Pronase application, the majority of WT male spermatids (63.4%, n=347) extend pseudopods (FIGS. 16B and 16B′), and the average length of spermatozoa is 8.13±1.11 μm (±standard deviation [SD], n=95) (FIG. 16B′). […] The diameter of my15 spermatids is also slightly smaller (6.22±0.54 μm, n=136) than WT (6.73±0.65 μm, n=110, p=8.08E-07). In vivo sperm activation defects were observed also in my15 hermaphrodites. […] Thus, cil-1 positively regulates sperm activation in vitro and in vivo. […] To this end, 1 nM, 10 nM, and 100 nM wortmannin, a pharmacological inhibitor of PI 3-kinases that produce PI(3,4,5)P3 from PI(4,5)P2 [27], were applied to WT and my15 spermatids.

my15 spermatids = test: in vitro sperm activation of isolated male spermatids, cil-1(my15) mutant; conditions: 100 nM
Method: as §2

| Compound | sperm crawl rate (WT sperm) [μm/s] | sperm motility (my15 sperm) | most effective concentration for in vitro activation (WT spermatids) [nM] | activation of male-derived sperm (my15 spermatids) |
| --- | --- | --- | --- | --- |
| CC[C@@]1([C@@H]2O[C@@H]([C@H]3O[C@@](O)(CO)[C@H](C)C[C@@H]3C)C[C@@H]2C)CC[C@H]([C@]2(C)CC[C@]3(C[C@H](O)[C@@H](C)[C@@H]([C@@H](C)[C@@H](OC)[C@H](C)C(=O)O)O3)O2)O1 [monensin] | 0.33±0.04 | immotile |  |  |
| COC[C@H]1OC(=O)c2coc3c2[C@@]1(C)C1=C(C3=O)[C@@H]2CCC(=O)[C@@]2(C)C[C@H]1OC(C)=O [wortmannin] |  |  | 100 | not activated |
